Patent US20070128217A1 (priority 2003, published 2007)

Assays:
[1] = test system: antibodies in sera from SARS patients (sera 1a, 1b, 2, 6, 37, 62, London, SARS-yellow, SARS-green); assay type: binding, human; set-up: Binding of serum 6 to linear peptides of protein X1 of SARS-CoV Urbani / Binding of serum 37 to linear peptides of protein X1 of SARS-CoV Urbani / Binding of serum 6 to looped/cyclic peptide (PEPSCAN-ELISA) / Binding of serum 37 to looped/cyclic peptide (PEPSCAN-ELISA) / Binding of serum 37 to looped/cyclic peptides of protein X1 of SARS-CoV Urbani / Binding of serum 6 to linear peptides of protein X2 / Binding of serum 37 to linear peptides of protein X2 / Binding of serum 37 to looped/cyclic peptides of protein X2 of SARS-CoV Urbani / Binding of serum 6 to linear peptides of protein M of SARS-CoV Urbani / Binding of serum 37 to linear peptides of protein M of SARS-CoV Urbani / Binding of serum 6 to looped/cyclic peptides of protein M of SARS-CoV Urbani / Binding of serum 37 to looped/cyclic peptides of protein M of SARS-CoV Urbani / Binding of serum 6 to linear peptides of protein X3 of SARS-CoV Urbani / Binding of serum 37 to linear peptides of protein X3 of SARS-CoV Urbani / Binding of serum 37 to looped/cyclic peptides of protein X3 of SARS-CoV Urbani / Binding of serum 6 to linear peptides of protein X4 of SARS-CoV Urbani / Binding of serum 37 to linear peptides of protein X4 of SARS-CoV Urbani / Binding of serum 37 to looped/cyclic peptides of protein X4 of SARS-CoV Urbani / Binding of serum 6 to linear peptides of protein X5 of SARS-CoV Urbani / Binding of serum 37 to linear peptides of protein X5 of SARS-CoV Urbani / Binding of serum 37 to looped/cyclic peptides of protein X5 of SARS-CoV Urbani / Binding of serum 6 to linear peptides of protein N of SARS-CoV Urbani / Binding of serum 37 to linear peptides of protein N of SARS-CoV Urbani / Binding of serum 6 to linear peptide (PEPSCAN-ELISA) / Binding of serum 1a to looped/cyclic peptides of protein N of SARS-CoV Urbani / Binding of serum 1b to looped/cyclic peptides of protein N of SARS-CoV Urbani / Binding of serum 2 to looped/cyclic peptides of protein N of SARS-CoV Urbani / Binding of serum 6 to looped/cyclic peptides of protein N of SARS-CoV Urbani / Binding of serum 37 to looped/cyclic peptides of protein N of SARS-CoV Urbani / Binding of serum 62 to looped/cyclic peptides of protein N of SARS-CoV Urbani / Binding of serum London to looped/cyclic peptides of protein N of SARS-CoV Urbani / Binding of serum SARS-green to looped/cyclic peptides of protein N of SARS-CoV Urbani: unit not given here
[2] = test system: control sera (pooled serum of ten healthy LUMC hospital workers; commercial negative donor pooled serum from the Dutch bloodbank); assay type: binding, human; set-up: Binding of Control serum LUMC to linear peptides / Binding of Control serum Blood-bank to linear peptides / Binding of Control serum LUMC to looped peptides / Binding of Control Serum Blood-Bank to Looped peptides / Binding of Control serum LUMC to linear peptides of the protein M of SARS-CoV Urbani / Binding of Control serum Blood-bank to linear peptides of the protein M of SARS-CoV Urbani / Binding of Control serum LUMC to looped peptides of the protein M of SARS-CoV Urbani / Binding of Control Serum Blood-Bank to Looped peptides of the protein M of SARS-CoV Urbani: unit not given here
[3] = test system: rabbit serum obtained by immunizing a rabbit with the SARS-CoV strain Frankfurt 1; assay type: binding; set-up: Binding of a rabbit serum to linear peptides / Binding of a rabbit serum to looped peptides / Rabbit serum linear peptides / Rabbit serum looped peptides / Binding of a rabbit serum to linear peptides of protein N of SARS-CoV Urbani (Rabbit serum linear peptides) / Binding of a rabbit serum to looped/cyclic peptides of protein N of SARS-CoV Urbani (Rabbit serum looped peptides): unit not given here
[4] = test system: recombinant human anti-SARS-CoV antibody 03-018; assay type: binding; set-up: Binding of antibody 03-018 to linear peptides of the N protein of SARS-CoV Urbani / Binding of antibody 03-018 to looped/cyclic peptides of the N protein of SARS-CoV Urbani: unit not given here

Sequence	Binding of serum 1a to linear peptides of protein N of SARS-CoV Urbani [1]	Binding of serum 1a to looped/cyclic peptides of protein N of SARS-CoV Urbani [1]	Binding of serum 1b to linear peptides of protein N of SARS-CoV Urbani [1]	Binding of serum 1b to looped/cyclic peptides of protein N of SARS-CoV Urbani [1]	Binding of serum 2 to linear peptides of protein N of SARS-CoV Urbani [1]	Binding of serum 2 to looped/cyclic peptides of protein N of SARS-CoV Urbani [1]	Binding of serum 6 to linear peptides of protein N of SARS-CoV Urbani [1]	Binding of serum 6 to looped/cyclic peptides of protein N of SARS-CoV Urbani [1]	Binding of serum 37 to linear peptides of protein N of SARS-CoV Urbani [1]	Binding of serum 37 to looped/cyclic peptides of protein N of SARS-CoV Urbani [1]	Binding of serum 62 to linear peptides of protein N of SARS-CoV Urbani [1]	Binding of serum 62 to looped/cyclic peptides of protein N of SARS-CoV Urbani [1]	Binding of serum London to linear peptides of protein N of SARS-CoV Urbani [1]	Binding of serum London to looped/cyclic peptides of protein N of SARS-CoV Urbani [1]	Binding of serum SARS-green to linear peptides of protein N of SARS-CoV Urbani [1]	Binding of serum SARS-green to looped/cyclic peptides of protein N of SARS-CoV Urbani [1]	Binding of serum SARS-yellow to linear peptides of protein N of SARS-CoV Urbani [1]	Binding of serum SARS-yellow to looped/cyclic peptides of protein N of SARS-CoV Urbani [1]	Binding of a rabbit serum to linear peptides of protein N of SARS-CoV Urbani (Rabbit serum linear peptides) [3]	Binding of a rabbit serum to looped/cyclic peptides of protein N of SARS-CoV Urbani (Rabbit serum looped peptides) [3]	also measured
PRITFGGPTDSTDNN	0.2	0.3	0.1	0.2	0.2	0.3	0.1	0.2	0.7	0.7	0.6	0.5	0.5	0.3	0.6	0.8	0.3	0.4	0.3	0.4	Binding of Control Serum Blood-Bank to Looped peptides [2]: 0.6; Binding of Control serum Blood-bank to linear peptides [2]: 0.6; Binding of Control serum LUMC to linear peptides [2]: 0.5; Binding of Control serum LUMC to looped peptides [2]: 0.6; Recognition of the peptide by antibody 03-018 [4]: recognized
PSASAFFGMSRIGME	0.2	0.4	0.1	0.3	0.1	0.3	0.1	0.2	0.6	0.6	0.5	0.4	0.5	0.3	0.1	0.3	0.6	0.4	0.1	0.3	Control Serum Blood-Bank Looped peptides [2]: 0.4; Control serum Blood-bank linear peptides [2]: 0.6; Control serum LUMC linear peptides [2]: 0.6; Control serum LUMC looped peptides [2]: 0.5; Binding of antibody 03-018 to linear peptides of the N protein of SARS-CoV Urbani [4]: 0.1; Binding of antibody 03-018 to looped/cyclic peptides of the N protein of SARS-CoV Urbani [4]: 0.2
PTDSTDNNQNGGRNG	0.3	0.3	0.2	0.2	0.3	0.3	0.2	0.2	1.2	0.5	0.8	0.3	0.7	0.4	0.6	0.4	0.7	0.5	0.1	0.1	Binding of Control Serum Blood-Bank to Looped peptides [2]: 0.5; Binding of Control serum Blood-bank to linear peptides [2]: 1.0; Binding of Control serum LUMC to linear peptides [2]: 0.8; Binding of Control serum LUMC to looped peptides [2]: 0.4; Binding of antibody 03-018 to linear peptides of the N protein of SARS-CoV Urbani [4]: 0.1; Binding of antibody 03-018 to looped/cyclic peptides of the N protein of SARS-CoV Urbani [4]: 0.2
